Assay results from US9951050B2, “Method of inhibiting DYRK1B” (4SC Discovery GmbH, priority 2013, dated 2018).
“Also recorded” adds a separate entry of the source.

Experiments:
DYRK1A = molecular target: T1, DYRK1A (Homo sapiens, UniProt Q13627); test: In vitro DYRK1A kinase assay (33P-ATP, DYRKtide substrate, Reaction Biology Corp.); assay type: biochemical; details: 10 μM ATP, 20 μM DYRKtide, 0.3 nM enzyme
T1 construct: full-; Insect; N-terminal; length; GST; GST (N); purchased Reaction Biology Corp; host or cells: Insect
Procedure: (§1) The assay was carried out by Reaction Biology Corp., Malverne, Pa., USA according to specifications by Reaction Biology Corp., as detailed herein below and further described in Anastassiadis et al., Nature Biotechnology, 29 (2011) 1039-1045.
(§2) DYRK1A: The substrate DYRKtide (synthetic peptide […]) (SEQ ID NO: 5) was dissolved in freshly prepared Base Reaction Buffer (20 mM Hepes (pH 7.5), 10 mM MgCl2, 1 mM EGTA, 0.02% Brij35, 0.02 mg/ml BSA, 0.1 mM Na3VO4, 2 mM DTT, 1% DMSO) at a concentration of 20 μM. DYRK1A was added to the substrate solution in a concentration of 0.3 nM and gently mixed. Compound dilution series in DMSO were added to the reaction, followed 20 min later by addition of a mixture of ATP and ^33P ATP (0.01 μCi/μl final) to a final concentration of 10 μM. Reactions proceeded at 25° C. for 120 min, followed by spotting onto P81 ion exchange filter paper. Unbound phosphate was removed by extensive washing of the filters in 0.75% phosphoric acid. […] IC50 values and curve fits were obtained using Prism (Graph Pad Software).
(§3) DYRK1A and DYRK1B used in the above assays are further described in the below table: […]

DYRK1B = molecular target: T2, DYRK1B (Homo sapiens, UniProt Q9Y463); test: In vitro DYRK1B kinase assay (33P-ATP, DYRKtide substrate, Reaction Biology Corp.); assay type: biochemical; details: 10 μM ATP, 20 μM DYRKtide
T2 construct: full-; Insect; N-terminal; length; GST; GST (N); purchased Reaction Biology Corp; host or cells: Insect
Procedure: as §1, §2
The assay for DYRK1B was carried out as described above for DYRK1A, with the exception that instead of DYRK1A, DYRK1B was added to the substrate solution and gently mixed.
as §3

[1] = test system: Hedgehog signaling pathway (GLI1, GLI2, PTCH1 expression) in DAOY cells; test: Western blot / qPCR of Hedgehog target genes in SAG-stimulated DAOY medulloblastoma cells; assay type: cell-based, human; details: for HH signaling / GLI target gene activation: SAG stimulated DAOY cells, Harmine 10 or 25 μM, Cpd P 1 or 5 μM; for GLI1 protein expression: Western blot
Procedure: (§4) DAOY cells (ATCC) were grown in MEM media (PAA Laboratories, Germany) supplemented with 10% fetal bovine serum (FBS) (PAA Laboratories, Germany), penicillin (62.5 μg/ml) and streptomycin ([…]) at 37° C. in an atmosphere containing 5% CO2. BSZ2 cells (So et al., 2006) were grown in 154-CF media (Life Technologies, UK) supplemented with 2% heat inactivated (56° C. for 30 minutes) and chelexed fetal bovine serum (FBS) (PAA Laboratories, Germany) (FBS was chelexed by adding to 50 mL FBS 10 g Chelex 100 (Bio-Rad Laboratories GmbH, Germany) followed by stirring for 60 min at RT; chelexed FBS was sterile filtered prior to use), penicillin (62.5 μg/ml) and streptomycin ([…]) at 37° C. in an atmosphere containing 5% CO2. Panc-1 and A673 cells (ATCC) were grown in DMEM media (PAA Laboratories, Germany) supplemented with 10% fetal bovine serum (FBS) (PAA Laboratories, Germany), penicillin (62.5 μg/ml) and streptomycin ([…]) at 37° C. in an atmosphere containing 5% CO2. For 3-dimensional (3D) cultures, 5×10^3 cells were seeded in 12-well plates in 0.4% select agar on top of 0.5% bottom select agar (Life Technologies, Germany) according to standard protocols of anchorage independent growth assays (Eberl et al., 2012). 3D cultures were grown for 4-6 weeks at 37° C. in a humidified atmosphere containing 5% CO2. Colony formation was documented on a stereomicroscope with Cell^D Image capture system (Olympus) and quantified using Colony Counter Software (Microtec Nition, Japan). SAG (smoothened agonist, N-Methyl-N′-(3-pyridinylbenzyl)-N′-(3-chlorobenzo[b]thiophene-2-carbonyl)-1,4-diaminocyclohexane) (Axxora LCC), Harmine (Fisher Scientific), GDC-0449 (LC Laboratories), GANT61 (Merck Chemicals Ltd.) and 4SC Compound P (4SC Discovery GmbH, Germany) were dissolved in DMSO. The final DMSO concentration in all wild-type DAOY samples was 0.2%, in all other cell line experiments including DAOY shSUFU cells 0.1%.
Total RNA was isolated using TRI-reagent (Molecular Research Center Inc.) followed by LiCl purification step. For this purpose, total RNA was dissolved in 100 mM Hepes pH 7.4/6M Urea and selectively precipitated by adding LiCl to a final concentration of 3M and incubating for 2 h at −20° C. Precipitated and purified RNA was used for cDNA synthesis using Superscript II reverse transcriptase (Life Technologies, Germany) according to the manufacturer's instructions. qPCR was done on a Rotorgene3000 (Qiagen, Germany) using iQ Sybr Green Supermix reagent (Bio-Rad Laboratories, UK). For qPCR analysis the following primer pairs (Microsynth AG, Switzerland) were used:
For Western blot analysis, cells were lysed in Laemmli buffer supplemented with PhosStop (Roche, Germany) and cOmplete EDTA-free Protease Inhibitor Cocktail (Roche, Germany). Proteins were visualized with horseradish peroxidase-conjugated secondary antibodies in combination with enhanced chemiluminescence detection system (GE Health Care, USA).
To address the effect of selected gene perturbations on canonical endogenous Hedgehog signaling in a human cancer cell line, the human medulloblastoma cell line (DAOY, ATCC ident. HTB-186) showing full responsiveness to Hedgehog activation by Smoothened agonist (SAG) as evidenced by activation of the direct Hedgehog target gene GLI1, a reliable and robust indicator of Hedgehog signaling pathway activity (FIG. 1) (Chen et al., 2002).
SAG stimulated DAOY cells were treated with Harmine (7-MeO-1-Me-9H-pyrido[3,4-b]-indole) (dissolved at room temperature as 25 mM stock solution in DMSO and used at final concentration of 10 μM or 25 μM), a naturally occurring DYRK1 inhibitor, as well as with Compound P (Cpd P, dissolved at room temperature in DMSO as 20 mM stock solution and used at final concentration of 1 μM or 5 μM, respectively), a small molecule inhibitor of DYRK1, which is structurally unrelated to Harmine.

[2] = test system: GLI1 and PTCH1 expression in DAOY shSUFU cells; test: Western blot / qPCR in SUFU knockdown (shSUFU) DAOY cells, SMO-independent GLI activation; assay type: cell-based, human; details: for PTCH1 mRNA expression: qPCR
Procedure: as §4
In the examples of the present invention, RNAi knockdown experiments were facilitated by lentiviral RNAi production and transductions, which were carried out as described in Kasper et al, 2007, which is incorporated herein by reference (Kasper et al., 2007). The following shRNA constructs (Sigma Aldrich mission TRC library) were used and the following abbreviations are used herein: shRNA DYRK1A (TRCN0000000526), shRNA DYRK1B-1 (TRCN0000002139), shRNA DYRK1B-2 (TRCN0000355722), shSUFU (TRCN0000019466) and control scrambled shRNA (SHC002). […] Transduced cells were selected for puromycin resistance prior to further analysis.
Total RNA was isolated using TRI-reagent (Molecular Research Center Inc.) followed by LiCl purification step. […]

[3] = test system: GLI1 protein expression in PANC1 cells; test: Western blot of PANC1 pancreatic cancer cells; assay type: cell-based, human; details: for GLI1 protein expression: GDC-0449 0.5 μM
Procedure: as §4, with “0.1%. […]” for “0.1%.”
(§5) The function of DYRK1 isoforms in SMO-independent/GLI-dependent pancreatic cancer and Ewing's sarcoma (EWS) cell lines PANC1 and A673, respectively, was analyzed. […]

[4] = test system: GLI1 protein expression in A673 cells; test: Western blot of Ewing sarcoma cell line A673; assay type: cell-based, human; details: for GLI1 protein expression: GDC-0449 0.5 μM
Procedure: as §4, with “0.1%. […]” for “0.1%.”
as §5

[5] = test system: tumor-initiating PANC1 pancreatic cancer cells; test: Anchorage-independent 3D culture clonal growth (tumorsphere) assay, PANC1; assay type: cell-based, human; details: PANC1, anchorage-independent 3D cultures
Procedure: (§6) DAOY cells (ATCC) were grown in MEM media (PAA Laboratories, Germany) supplemented with 10% fetal bovine serum (FBS) (PAA Laboratories, Germany), penicillin (62.5 μg/ml) and streptomycin ([…]) at 37° C. in an atmosphere containing 5% CO2. BSZ2 cells (So et al., 2006) were grown in 154-CF media (Life Technologies, UK) supplemented with 2% heat inactivated (56° C. for 30 minutes) and chelexed fetal bovine serum (FBS) (PAA Laboratories, Germany) (FBS was chelexed by adding to 50 mL FBS 10 g Chelex 100 (Bio-Rad Laboratories GmbH, Germany) followed by stirring for 60 min at RT; chelexed FBS was sterile filtered prior to use), penicillin (62.5 μg/ml) and streptomycin ([…]) at 37° C. in an atmosphere containing 5% CO2. Panc-1 and A673 cells (ATCC) were grown in DMEM media (PAA Laboratories, Germany) supplemented with 10% fetal bovine serum (FBS) (PAA Laboratories, Germany), penicillin (62.5 μg/ml) and streptomycin ([…]) at 37° C. in an atmosphere containing 5% CO2. […] Colony formation was documented on a stereomicroscope with Cell^D Image capture system (Olympus) and quantified using Colony Counter Software (Microtec Nition, Japan). […]

[6] = test system: tumor-initiating L3.6pl pancreatic cancer cells; test: Anchorage-independent 3D culture clonal growth (tumorsphere) assay, L3.6pl; assay type: cell-based; details: anchorage-independent 3D cultures
[7] = test system: GLI1 expression in BSZ2 cells; test: Western blot of GLI1 in Ptch-/- BCC cells (BSZ2); assay type: cell-based; details: mouse Ptch-/- BCC cells (BSZ2)
Procedure: as §6

[8] = DAOY cells, 100 nM SAG 48 hours, starving conditions

T2 sequence (Q9Y463 whole entry): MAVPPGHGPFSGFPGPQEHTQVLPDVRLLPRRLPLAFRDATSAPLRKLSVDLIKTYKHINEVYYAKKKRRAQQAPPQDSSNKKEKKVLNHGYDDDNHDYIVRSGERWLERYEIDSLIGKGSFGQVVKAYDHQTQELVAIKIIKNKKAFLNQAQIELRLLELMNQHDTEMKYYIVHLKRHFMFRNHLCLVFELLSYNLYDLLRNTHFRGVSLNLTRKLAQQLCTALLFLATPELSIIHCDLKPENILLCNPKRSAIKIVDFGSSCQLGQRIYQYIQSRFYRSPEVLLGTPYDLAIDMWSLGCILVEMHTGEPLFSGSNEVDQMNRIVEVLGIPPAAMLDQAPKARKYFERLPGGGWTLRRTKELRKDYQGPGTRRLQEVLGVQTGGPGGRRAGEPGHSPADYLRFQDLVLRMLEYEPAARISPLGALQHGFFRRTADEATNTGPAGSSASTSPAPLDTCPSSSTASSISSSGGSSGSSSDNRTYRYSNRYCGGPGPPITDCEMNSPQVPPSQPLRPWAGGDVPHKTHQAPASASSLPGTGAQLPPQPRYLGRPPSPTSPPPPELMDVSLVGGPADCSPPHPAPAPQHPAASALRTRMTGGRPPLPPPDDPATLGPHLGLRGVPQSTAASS

Structure (SMILES)	IC50 (DYRK1A) [nM]	IC50 (DYRK1B) [nM]	HH signaling / GLI target gene activation [1]	GLI1 protein expression [1, 8]	GLI1 mRNA expression [2]	PTCH1 mRNA expression [2]	GLI1 expression (protein) ([2]; Western blot)	GLI1 protein expression [3]	GLI1 protein expression [4]	clonal growth (sphere numbers) [5]	clonal growth (sphere numbers) [6]	PTCH1 mRNA expression ([1]; qPCR, DAOY cells, 100 nM SAG 48 hours, starving conditions)	GLI1 expression [7]	Beta Catenin and STAT3 expression [3]	Beta Catenin expression [4]
FC(F)(F)c1ccc2[nH]c(Nc3ncccn3)nc2c1 [Compound P, N-(pyrimidin-2-yl)-5-(trifluoromethyl)-1H-benzo[d]imidazol-2-amine]	22.2	54.8	significant reduction	significantly inhibited											
CN(C)c1ccccc1CN1CCCN(Cc2ccccc2N(C)C)C1c1ccncc1 [GANT61, 2,2′-[[Dihydro-2-(4-pyridinyl)-1,3(2H,4H)-pyrimidinediyl]bis-(methylene)]bis[N,N-dimethylbenzenamine)]					down-regulation	down-regulation; also recorded: sensitive									
CS(=O)(=O)c1ccc(C(=O)Nc2ccc(Cl)c(-c3ccccn3)c2)c(Cl)c1 [GDC-0449, 2-chloro-N-(4-chloro-3-(pyridin-2-yl)phenyl)-4-(methylsulfonyl)benzamide]				efficiently blocked		resistant	unaffected; also recorded: resistant	resistance; also recorded: inability	inability	not and did not affect	not				
COc1ccc2c(c1)[nH]c1c(C)nccc12 [Harmine, 7-MeO-1-Me-9H-pyrido[3,4-b]-indole]			significant reduction	significantly inhibited				reduces; also recorded: reduced levels of GLI1	reduces; also recorded: reduced levels of GLI1	reduces sphere numbers; also recorded: reduced clonogenic growth	reduces sphere numbers	significantly inhibited	reduced GLI1 expression	essentially unaffected	essentially unaffected
